These results are taken from patent US20240116985A1, “STAPLED PEPTIDES AND METHODS THEREOF” (priority 2020, published 2024).

Like-named read-outs stand apart in the source and are kept apart here.

The target in experiment [1] is T1, full-length beta-Catenin (Uniprot ID P35222) (Homo sapiens, UniProt P35222).
T1 construct: 10 nM full-length beta-Catenin (Uniprot ID P35222)
T1 sequence (P35222 1-781): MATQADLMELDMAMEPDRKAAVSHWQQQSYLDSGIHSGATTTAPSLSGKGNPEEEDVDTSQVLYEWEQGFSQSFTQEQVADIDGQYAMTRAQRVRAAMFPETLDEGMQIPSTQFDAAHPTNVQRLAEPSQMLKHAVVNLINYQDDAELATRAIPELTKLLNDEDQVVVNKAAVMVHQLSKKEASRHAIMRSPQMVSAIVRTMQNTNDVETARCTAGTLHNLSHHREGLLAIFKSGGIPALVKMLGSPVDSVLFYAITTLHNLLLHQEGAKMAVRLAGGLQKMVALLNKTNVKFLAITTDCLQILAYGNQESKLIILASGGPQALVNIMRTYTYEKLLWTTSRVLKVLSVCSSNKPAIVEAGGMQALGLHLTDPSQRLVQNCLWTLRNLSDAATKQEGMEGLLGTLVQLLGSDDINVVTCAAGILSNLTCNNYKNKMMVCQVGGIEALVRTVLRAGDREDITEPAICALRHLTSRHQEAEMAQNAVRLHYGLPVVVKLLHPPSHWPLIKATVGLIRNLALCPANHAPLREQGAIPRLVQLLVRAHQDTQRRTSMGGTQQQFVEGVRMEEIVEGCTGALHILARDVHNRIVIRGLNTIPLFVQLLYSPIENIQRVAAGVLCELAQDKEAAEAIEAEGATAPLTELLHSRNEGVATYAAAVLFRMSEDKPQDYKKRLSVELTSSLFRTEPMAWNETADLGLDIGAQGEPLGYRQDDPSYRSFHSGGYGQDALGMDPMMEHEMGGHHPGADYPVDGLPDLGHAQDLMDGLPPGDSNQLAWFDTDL
The experiment is described as follows: Fluorescence polarization IC50 (beta-catenin / 5FAM-TCF4 10-53 competition). Conditions: fluorescence polarization. It counts as binding. (In general: In fluorescence polarisation assays a small probe gives low polarisation when free and higher when bound to something large.)

Experiment [2] has as its target T2, beta-catenin/TCF4 engagement (Homo sapiens, UniProt P35222).
T2 construct: expressed in transfected cells; host or cells: HEK293
T2 sequence (P35222 1-781): T1 sequence (P35222 1-781)
As to the kind of experiment: Nano-BRET target engagement assay (B-cat-Halo & TCF4-Luc in HEK293 cells). It counts as cell-based. Conditions: absolute IC50. For orientation: BRET reads energy transfer from a luciferase to a nearby fluorophore.

The IC50 is the concentration that gives 50% inhibition. Consider `CC(=O)N1CCC[C@]12CC=CCCCCC1(CCCCC=CCCOC(=O)N3CC[C@@](C(=O)N[C@@H](Cc4ccccc4C(F)(F)F)C(=O)N[C@@H](Cc4csc5ccccc45)C(=O)N[C@@H](C)C(N)=O)(C3)NC(=O)[C@H](CC(C)C)NC(=O)[C@H](Cc3ccccc3)NC(=O)[C@H](C)NC(=O)[C@H](CCC(N)=O)NC(=O)[C@H](Cc3cccc(C(=O)O)c3)NC(=O)[C@H](CC(=O)O)NC1=O)NC(=O)[C@H](CC(C)(C)C)NC(=O)[C@H](CC(=O)O)NC2=O` (stereo partly drawn) [I-2510, Ac-PL3-Asp-Npg-B6-Asp-3COOHF-Gln-Ala-Phe-Leu-PyrS1-2F3MeF-BztA-Ala-NH2], for which the IC50 in experiment [1] (read-out: beta-Catenin FP IC50) amounted to 24 nM; in experiment [2] (read-out: NanoBRET Abs IC50), 7.8 µM.

`CC(=O)N1CCC[C@]12CC=CCCCCC1(CCCCC=CCCCOC(=O)N3CC[C@@](C(=O)N[C@@H](Cc4ccccc4C(F)(F)F)C(=O)N[C@@H](Cc4csc5ccccc45)C(=O)N[C@@H](CCC(N)=O)C(N)=O)(C3)NC(=O)[C@H](CC(C)C)NC(=O)[C@H](Cc3ccccc3)NC(=O)[C@H](C)NC(=O)[C@H](C)NC(=O)[C@H](Cc3cccc(C(=O)O)c3)NC(=O)[C@H](CC(=O)O)NC1=O)NC(=O)[C@H](CC(C)(C)C)NC(=O)[C@H](CC(=O)O)NC2=O` (stereo partly drawn) [I-2513, Ac-PL3-Asp-Npg-B6-Asp-3COOHF-Ala-Ala-Phe-Leu-PyrS2-2F3MeF-BztA-Gln-NH2]: the results for the IC50 in experiment [1] (read-out: beta-Catenin FP IC50) and in experiment [2] (read-out: NanoBRET Abs IC50) were 66 nM and over 20 µM, respectively.

Consider `CC(=O)N1CCC[C@]12CC=CCCCCC1(CCCCC=CCCCOC(=O)N3CC[C@@](C(=O)N[C@@H](Cc4ccccc4C(F)(F)F)C(=O)N[C@@H](Cc4csc5ccccc45)C(=O)N[C@@H](C)C(N)=O)(C3)NC(=O)[C@H](CC(C)C)NC(=O)[C@H](Cc3ccccc3)NC(=O)[C@H](C)NC(=O)[C@H](CCC(N)=O)NC(=O)[C@H](Cc3cccc(C(=O)O)c3)NC(=O)[C@H](CC(=O)O)NC1=O)NC(=O)[C@H](CC(C)(C)C)NC(=O)[C@H](CC(=O)O)NC2=O` (stereo partly drawn) [I-2515, Ac-PL3-Asp-Npg-B6-Asp-3COOHF-Gln-Ala-Phe-Leu-PyrS2-2F3MeF-BztA-Ala-NH2], for which the IC50 in experiment [1] (read-out: beta-Catenin FP IC50) was 1610 nM; in experiment [2] (read-out: NanoBRET Abs IC50) it was over 20 µM.

As to `CC(=O)N1CCC[C@]12CC=CCCCCC1(CCCCC=CCCCOC(=O)N3CC[C@@](C(=O)N[C@@H](Cc4ccccc4C(F)(F)F)C(=O)N[C@@H](Cc4csc5ccccc45)C(=O)N[C@@H](C)C(N)=O)(C3)NC(=O)[C@H](CC(C)C)NC(=O)[C@H](Cc3ccccc3)NC(=O)[C@H](C)NC(=O)[C@H](CCC(N)=O)NC(=O)[C@H](Cc3cccc(C(=O)O)c3)NC(=O)[C@H](CC(=O)O)NC1=O)NC(=O)[C@H](CC(C)(C)C)NC(=O)[C@H](CC(=O)O)NC2=O` (stereo partly drawn) [I-2517, Ac-PL3-Asp-Npg-B6-Asp-3COOHF-Gln-Ala-Phe-Leu-PyrS2-2F3MeF-BztA-Ala-NH2], the figures for the half-maximal inhibitory concentration (IC50) in experiment [1] (read-out: beta-Catenin FP IC50) and in experiment [2] (read-out: NanoBRET Abs IC50) were 61 nM and 30 µM, respectively.

For the compound `CC(=O)N1CCC[C@]12CC=CCCCCC1(CCCCC=CCOC(=O)N3CC[C@@](C(=O)N[C@@H](Cc4ccccc4C(F)(F)F)C(=O)N[C@@H](Cc4csc5ccccc45)C(=O)N[C@@H](CCC(N)=O)C(N)=O)(C3)NC(=O)[C@H](CC(C)C)NC(=O)[C@H](Cc3ccccc3)NC(=O)[C@H](C)NC(=O)[C@H](C)NC(=O)[C@H](Cc3cccc(C(=O)O)c3)NC(=O)[C@H](CC(=O)O)NC1=O)NC(=O)[C@H](CC(C)(C)C)NC(=O)[C@H](CC(=O)O)NC2=O` (stereo partly drawn) [I-2518, Ac-PL3-Asp-Npg-B6-Asp-3COOHF-Ala-Ala-Phe-Leu-PyrS-2F3MeF-BztA-Gln-NH2], the half-maximal inhibitory concentration (IC50) in experiment [1] (read-out: beta-Catenin FP IC50) is 212 nM; in experiment [2] (read-out: NanoBRET Abs IC50), over 20 µM.

For `CC(=O)NCCCC[C@@H]1NC(=O)[C@H](CCC(N)=O)NC(=O)[C@H](CC(=O)O)NC(=O)C2(CCCC=CCCCOC(=O)N3CC[C@@](C(=O)N[C@@H](Cc4ccccc4)C(=O)N[C@@H](Cc4csc5ccccc45)C(=O)N[C@@H](CC(=O)N4CCOCC4)C(N)=O)(C3)NC(=O)[C@H](CC(C)C)NC(=O)[C@H](Cc3ccccc3)NC(=O)[C@H](C)NC1=O)CCCC=CC[C@]1(CCCN1C(C)=O)C(=O)N[C@@H](CC(N)=O)C(=O)N[C@@H](CC1CCCCC1)C(=O)N2` (stereo partly drawn) [I-2522, Ac-PL3-Asn-Cha-B5-Asp-Gln-[Ac]Lys-Ala-Phe-Leu-PyrS2-Phe-BztA-MorphAsn-NH2], the figures for the IC50 in experiment [1] (read-out: beta-Catenin FP IC50) and in experiment [2] (read-out: NanoBRET Abs IC50) were 219 nM and over 20 µM, respectively.

Turning to `CC(=O)N1CCC[C@]12CC=CCCCC1(CCCC=CCCCOC(=O)N3CC[C@@](C(=O)N[C@@H](Cc4ccccc4)C(=O)N[C@@H](Cc4csc5ccccc45)C(=O)N[C@@H](CC(=O)N4CCOCC4)C(N)=O)(C3)NC(=O)[C@H](CC(C)C)NC(=O)[C@H](Cc3ccccc3)NC(=O)[C@H](C)NC(=O)[C@H](CCCCNC(=O)c3ccccc3)NC(=O)[C@H](CCC(N)=O)NC(=O)[C@H](CC(=O)O)NC1=O)NC(=O)[C@H](CC1CCCCC1)NC(=O)[C@H](CC(N)=O)NC2=O` (stereo partly drawn) [I-2523, Ac-PL3-Asn-Cha-B5-Asp-Gln-[Phc]Lys-Ala-Phe-Leu-PyrS2-Phe-BztA-MorphAsn-NH2], the IC50 is 1730 nM in experiment [1] (beta-Catenin FP IC50 (nM)) and over 20 µM in experiment [2] (NanoBRET Abs IC50 (uM)).

As for `COCCOCCOCCOCCC(=O)NCCCC[C@@H]1NC(=O)[C@H](CCC(N)=O)NC(=O)[C@H](CC(=O)O)NC(=O)C2(CCCC=CCCCOC(=O)N3CC[C@@](C(=O)N[C@@H](Cc4ccccc4)C(=O)N[C@@H](Cc4csc5ccccc45)C(=O)N[C@@H](CC(=O)N4CCOCC4)C(N)=O)(C3)NC(=O)[C@H](CC(C)C)NC(=O)[C@H](Cc3ccccc3)NC(=O)[C@H](C)NC1=O)CCCC=CC[C@]1(CCCN1C(C)=O)C(=O)N[C@@H](CC(N)=O)C(=O)N[C@@H](CC1CCCCC1)C(=O)N2` (stereo partly drawn) [I-2526, Ac-PL3-Asn-Cha-B5-Asp-Gln-[mPEG4]Lys-Ala-Phe-Leu-PyrS2-Phe-BztA-MorphAsn-NH2], the half-inhibitory concentration (IC50) in experiment [1] (read-out: beta-Catenin FP IC50) is 224 nM; in experiment [2] (read-out: NanoBRET Abs IC50), over 20 µM.

As to `CC(=O)N1CCC[C@]12CC=CCCCC1(CCCC=CCCCOC(=O)N3CC[C@@](C(=O)N[C@@H](Cc4ccccc4)C(=O)N[C@@H](Cc4csc5ccccc45)C(=O)N[C@@H](CC(=O)N4CCOCC4)C(N)=O)(C3)NC(=O)[C@H](CC(C)C)NC(=O)[C@H](Cc3ccccc3)NC(=O)[C@H](C)NC(=O)[C@H](CCCCNC(=O)CN3CCOCC3)NC(=O)[C@H](CCC(N)=O)NC(=O)[C@H](CC(=O)O)NC1=O)NC(=O)[C@H](CC1CCCCC1)NC(=O)[C@H](CC(N)=O)NC2=O` (stereo partly drawn) [I-2527, Ac-PL3-Asn-Cha-B5-Asp-Gln-[MorphAc]Lys-Ala-Phe-Leu-PyrS2-Phe-BztA-MorphAsn-NH2], the results for the IC50 in experiment [1] (read-out: beta-Catenin FP IC50) and in experiment [2] (read-out: NanoBRET Abs IC50) were 263 nM and over 20 µM, respectively.

Take `CC(=O)N1CCC[C@]12CC=CCCCC1(CCCC=CCCCOC(=O)N3CC[C@@](C(=O)N[C@@H](Cc4ccccc4C(F)(F)F)C(=O)N[C@@H](Cc4csc5ccccc45)C(=O)N[C@@H](CCC(=O)N(C)C)C(N)=O)(C3)NC(=O)[C@H](Cc3ccccc3)NC(=O)[C@H](Cc3ccccc3)NC(=O)[C@H](C)NC(=O)[C@H](C)NC(=O)[C@H](Cc3cccc(C(=O)O)c3)NC(=O)[C@H](CC(=O)O)NC1=O)NC(=O)[C@H](CC(C)(C)C)NC(=O)[C@H](CC(=O)O)NC2=O` (stereo partly drawn) [I-2534, Ac-PL3-Asp-Npg-B5-Asp-3COOHF-Ala-Ala-Phe-Phe-PyrS2-2F3MeF-BztA-Me2Gln-NH2]: the IC50 stood at 21 nM in experiment [1] (read-out: beta-Catenin FP IC50) and 4.4 µM in experiment [2] (read-out: NanoBRET Abs IC50).

In the case of `CC(=O)N1CCC[C@]12CC=CCCCC1(CCCC=CCCCOC(=O)N3CC[C@@](C(=O)N[C@@H](Cc4ccccc4C(F)(F)F)C(=O)N[C@@H](Cc4csc5ccccc45)C(=O)N[C@@H](CCC(=O)N(C)C)C(N)=O)(C3)NC(=O)[C@H](CCC(=O)N(C)C)NC(=O)[C@H](Cc3ccccc3)NC(=O)[C@H](C)NC(=O)[C@H](C)NC(=O)[C@H](Cc3cccc(C(=O)O)c3)NC(=O)[C@H](CC(=O)O)NC1=O)NC(=O)[C@H](CC(C)(C)C)NC(=O)[C@H](CC(=O)O)NC2=O` (stereo partly drawn) [I-2535, Ac-PL3-Asp-Npg-B5-Asp-3COOHF-Ala-Ala-Phe-Me2Gln-PyrS2-2F3MeF-BztA-Me2Gln-NH2], the IC50 came to 11 nM in experiment [1] (read-out: beta-Catenin FP IC50) and 3.7 µM in experiment [2] (read-out: NanoBRET Abs IC50).

Turning to `CC(=O)N1CCC[C@]12CC=CCCCC1(CCCC=CCCCOC(=O)N3CC[C@@](C(=O)N[C@@H](Cc4ccccc4C(F)(F)F)C(=O)N[C@@H](Cc4csc5ccccc45)C(=O)N[C@@H](CCC(=O)N(C)C)C(N)=O)(C3)NC(=O)[C@H](CCC(=O)N(C)C)NC(=O)[C@H](Cc3ccccc3)NC(=O)[C@H](C)NC(=O)[C@H](C)NC(=O)[C@H](Cc3cccc(C(=O)O)c3)NC(=O)[C@H](CC(=O)O)NC1=O)NC(=O)[C@H](CC(C)(C)C)NC(=O)[C@H](CC(=O)O)NC2=O` (stereo partly drawn) [I-2536, Ac-PL3-Asp-Npg-B5-Asp-3COOHF-Ala-Ala-Phe-Me2Gln-PyrS2-2F3MeF-BztA-Me2Gln-NH2], the 50% inhibitory concentration (IC50) was determined as 13 nM in experiment [1] (read-out: beta-Catenin FP IC50) and 4.5 µM in experiment [2] (read-out: NanoBRET Abs IC50).
